Measured values: patent publication US20250282742A1, “BENZOFURAN DERIVATIVES FOR TARGETING AUTOPHAGY” (Automera PTE. LTD, priority 2024, published 2025)

Assays:
[1] = tested on: LC3 protein (LC3-II/LC3-I) in HeLa cells; test: LC3 lipidation assay (LC3-II/LC3-I, Western blot, 24 h treatment); assay type: cell-based; settings: fold change in LC3-II/LC3-I relative to DMSO control
Description: HeLa cells were seeded in 6-well plates (700,000 cells) and allowed to adhere overnight. Media was replaced one hour before administering either vehicle (DMSO) or test compounds. After 24 hours of treatment, the media was discarded, and cells were rinsed once with ice-cold 1×PBS before detached from plates with ice-cold RIPA Lysis and Extraction Buffer (Thermo Fisher Scientific) which was supplemented with protease and phosphatase inhibitors. The resulting cell suspensions were transferred to pre-chilled microcentrifuge tubes, incubated on ice for 20 min with intermittent mixing and then centrifuged at 12,000 rpm for 20 min at 4° C. The supernatants were then aspirated slowly and transferred into new tubes kept on ice. The protein concentration in the samples was determined using BCA kit (Thermo Fisher Scientific) as per manufacturer's instructions.
For the p62 oligomerization and LC3 lipidation assays, cell lysates were prepared using RIPA buffer supplemented with 2% SDS and benzonase (Sigma). The lysates were then combined with 4× Laemmli protein sample buffer (Bio-Rad), heated at 70° C. for 10 min and subjected to a brief centrifugation of 10-15 seconds.
For p62 oligomerization and LC3 lipidation assays, lysates containing 30 μg of protein and for BRD4 and FKBP12(F36V) degradation assays, lysates containing 20 μg of protein, were loaded slowly into the wells of 4-20% gradient Tris-glycine gels (Bio-Rad). The gels were run at 100V until completion and transferred onto PVDF membranes. Membranes were blocked using 5% milk in TBS-Tween (0.1%) buffer at room temperature for 1 hour. The membranes were incubated with primary antibody in 5% milk-TBST with shaking, overnight at 4° C. The primary antibodies used were: p62 (Novus Biologicals 2C11, H00008878-MO1), LC3A/B (Cell Signalling Technology D3U4C, 12741S), FKBP12 (Abcam ab24373), BRD4 (Cell Signalling Technology E2A7X, 13440S), GAPDH (Cell Signalling Technology D4C6R, 97166S), and β-Actin (Proteintech 66009-1-Ig). Following primary antibody incubation, membranes were washed thrice with TBST 10 min before and after incubation with secondary-HRP conjugated antibody in 5% milk-TBST for 1 hour at room temperature. The secondary antibodies used were: Anti-Mouse IgG HRP Conjugate (Promega W4021B) and Anti-Rabbit IgG HRP Conjugate (Promega W4011B). For the p62 oligomerization assay, the total protein levels were assessed using Ponceau staining (Thermo Fisher Scientific) of PVDF membrane as per recommendation by manufacturer's guidelines.
Imaging was acquired using SuperSignal™ West Pico PLUS Chemiluminescent Substrate (Thermo Fisher Scientific) with iBright Invitrogen FL100 imaging system. Band signal intensity, reflective of protein concentrations, were quantified using Invitrogen™ iBright™ Analysis and Image J software.
HeLa cells were treated with compounds for 24 hours to evaluate the effect of these compounds on LC3-II/LC3-I levels, a measure of autophagy activation. The changes in levels of LC3-I, LC3-II and β-Actin (loading control) were assessed by Western blotting, as described in experimental procedures. The fold increase of LC3-II/LC3-I levels induced by compound treatment relative to vehicle control (DMSO) was determined and summarized in Table 9. Specifically, FIGS. 3A-C show Western blot images and their corresponding quantification showing the lipidation levels of LC3 protein (LC3-II/LC3-I) by 24 hours compound treatments at listed concentrations, relative to vehicle control (DMSO) in HeLa cells.

p62 puncta in HeLa cells = test: p62 puncta assay (immunocytochemistry and imaging, EVOS M7000 or Operetta CLS); assay type: cell-based; settings: Homo sapiens, fold change in p62 puncta levels relative to DMSO control, 24 hr
Description: HeLa cells were seeded in coated 96-well plates (10,000 cells) and allowed to adhere overnight. After 24 hours of treatment with either vehicle (DMSO) or test compounds, the media was discarded, and cells were rinsed with ice-cold 1×PBS before fixation by 4% formaldehyde or paraformaldehyde for 20 min. Cells were then washed with 1×PBS and permeabilized with 0.1% Triton X-100 in PBS for 20 min and blocked with Blocking Buffer in PBS for 1 hour. The cells were incubated thereafter for 1 hour with anti-p62 primary antibody in Blocking Buffer, followed by incubation with secondary antibody for 1 hour. DAPI dye was used to visualize nuclei of fixed cells. The blocking buffer used were 5% Fetal Bovine Serum (FBS, ThermoFIsher Scientific, 10270106) and Li-cor Intercept (PBS) Blocking Buffer (Li-cor, 927-70001). The primary antibody used was mouse anti-p62 primary antibody (Novus Biologicals, H00008878-MO1). The secondary antibodies used were goat anti-mouse Alexa Fluor Plus 488 secondary antibody (Invitrogen, GOXMS) and goat anti-mouse Alexa Fluor 488 secondary antibody (Invitrogen, A-11029). The DAPI dyes used were DAPI dye (Invitrogen, 62248) and DAPI dye (Invitrogen, D1306).
For the EVOS M7000 System, cells were imaged on the EVOS M7000 microscope using a 20× air objective (Nikon, N.A 0.45). DAPI and p62 channels were illuminated with LED light cubes using integrated hard-coated filter sets for DAPI (357/447 nm) and GFP (470/525 nm) respectively. Images were analysed for p62 puncta count on the Celeste 6.0 software.
For the Operetta CLS System, cells were imaged on the Operetta CLS using a 63× water objective on the DAPI and Alexa 488 channels. Images were analysed for p62 puncta count on the Harmony 5.1 software.
HeLa cells were treated with compounds for 24 hours to evaluate the effect of these compounds on p62 puncta activity. The resulting changes in levels of p62 puncta were assessed by imaging, either on the EVOS M7000 or Operetta CLS systems as described in experimental procedures. The fold change of p62 puncta levels induced by compound treatment relative to vehicle control (DMSO) was determined and summarized in Table 10.

SMILES	LC3 lipidation [1]	fold induction at 5 µM (p62 puncta in HeLa cells)
OCCNCc1ccc2cc(Cc3ccc(Cl)cc3)oc2c1 [Compound 13, 2-(((2-(4-chlorobenzyl)benzofuran-6-yl)methyl)amino)ethan-1-ol]	++ (> 2-fold change in LC3-II/LC3-I relative to DMSO control)	> 2
OCCNCc1ccc2cc(Cc3ccc(F)cc3)oc2c1 [compound 12]	+ (< 2-fold change in LC3-II/LC3-I relative to DMSO control)	> 2
Cc1c(Cc2ccccc2)oc2cc(CNCCO)ccc12 [Compound 42, 2-(((2-benzyl-3-methylbenzofuran-6-yl)methyl)amino)ethan-1-ol]	+ (< 2-fold change in LC3-II/LC3-I relative to DMSO control)	< 2
OCCNCc1ccc2cc(-c3ccccc3)oc2c1 [Compound 2, 2-(((2-phenylbenzofuran-6-yl)methyl)amino)ethan-1-ol]	++ (> 2-fold change in LC3-II/LC3-I relative to DMSO control)	> 2
OCCNCc1ccc2cc(CCc3ccc(F)cc3)oc2c1 [Compound 49, 2-(((2-(4-fluorophenethyl)benzofuran-6-yl)methyl)amino)ethan-1-ol]	+ (< 2-fold change in LC3-II/LC3-I relative to DMSO control)	> 2
OCCNCc1ccc2cc(Cc3ccccc3)oc2c1 [compound 1]	+ (< 2-fold change in LC3-II/LC3-I relative to DMSO control)	> 2
